Results on 66 compounds are retold here after patent publication US20120053148A1, “INHIBITORS OF HEPATITIS C VIRUS” (GILEAD SCIENCES, INC., priority 2010, published 2012).

Broadly, the inhibition is how much of the control response was suppressed.

The subject of one experiment is HCV Replicon IB. Description: HCV replicon assay in Huh-7 cells, genotype 1b (Rluc luciferase readout). The class given is cell-based, hepatitis C virus. The following applies: HCV1B replicon, Huh-7 cells, 3 days; read-out: EC50_HCV1B_. In general terms: Replicon systems follow genome replication, usually without infectious particles.
For `Cc1cc(-c2nnc(NCC[C@H](C)O)s2)nc2c(C(C)(C)C)cc(C3CC3)cc12` [Compound 385], the EC50 was 1.73 nM.
On the same count and under the same terms, the value for `Cc1cc(-c2nnc(NC3CCC(O)(CF)C3)o2)nc2c(C(C)(C)C)cc(OCC(F)(F)F)cc12` (stereo not drawn) [Compound 490] was 50 nM.

The experiment is the same for the next values; noted with them: Hepatitis C virus, 72 h; 10 uM; 1b-Rluc replicon, Huh-7 cells, 3 days; read-out: Inhibition @ 10 uM in 1b-Rluc.
With `Cc1cc(C(=O)NCC(C)(C)C#N)nc2c(C(F)(F)F)cc(-c3ccccc3)cc12` [Compound 162], the inhibition at 10 µM stood at 80.5%.
Turning to `Cc1cc(C(=O)NCC2COCC(C)(C)N2)nc2c(C(F)(F)F)cc(C3CC3)cc12` (stereo not drawn) [Compound 133], the inhibition at 10 µM is 92.4%.
With `CC(C)(C)c1cc(C2CC2)cc2c(Cl)cc(C(=O)NCc3ccccn3)nc12` [Compound 229], the inhibition at 10 µM was found to be 100%.
Same read-out and setting: the value for `Cc1cc(-c2nnc(N)s2)nc2c(C(F)(F)F)cc(C3CC3)cc12` [Compound 305] was 96.6%.
With `Cc1cc(C(=O)NCc2ccccn2)nc2c(C(F)(F)F)cc(C3OC3(C)C)cc12` (stereo not drawn) [Compound 141], the inhibition at 10 µM worked out at 94.8%.
Same read-out and setting: the figure for `CC(=O)Nc1cc(C(F)(F)F)c2nc(C(=O)NCc3ccccn3)cc(C)c2c1` [Compound 177] is 94.7%.
Regarding `Cc1cc(C(=O)NCCC2OCCO2)nc2c(C(F)(F)F)cc(C3CC3)cc12` [Compound 106], the inhibition at 10 µM came out at 99.7%.
The same measure, in the same setting: the figure for `Cc1cc(C(=O)NCCCO)nc2c(C(F)(F)F)cc(-c3ccccc3)cc12` [Compound 164] is 94.6%.
Still for that read-out and setting: the figure for `Cc1cc(-c2nnc(NC(C)(C)CO)o2)nc2c(C(F)(F)F)cc(C3CC3)cc12` [Compound 261] is 99.2%.
For the compound `Cc1cc(C(=O)NCC2(C)OCCO2)nc2c(C(F)(F)F)cc(C3CC3)cc12` [Compound 98], the inhibition at 10 µM is 98.1%.
Still for that read-out and setting: the figure for `CS(=O)(=O)Nc1nc(C(=O)NCc2cccs2)nc2c(C(F)(F)F)cc(-c3ccccc3)cc12` [Compound 222] is 95.1%; for `Cc1cc(C(=O)NCC2OCCCO2)nc2c(C(F)(F)F)cc(C3CC3)cc12` [Compound 82] it is 100%; for `Cc1cc(C(=O)NC[C@@H]2CC(F)(F)CCN2)nc2c(C(F)(F)F)cc(OC(F)F)cc12` (single isomer, unassigned) [Compound 202] it is 99.5%.
The same measure, in the same setting: the value for `COC1CN[C@H](CNC(=O)c2cc(C)c3cc(C4CC4)cc(C(F)(F)F)c3n2)C1` (single isomer, unassigned) [Compound 127] was 99.7%.
`Cc1cc(C(=O)NCc2ccccn2)nc2c(C(F)(F)F)cc(C3CCCC3)cc12` [Compound 150]: the inhibition at 10 µM came out at 99%.
Same read-out and setting: the figure for `O=C(NCC1(O)CC1)c1cc(Cl)c2cc(C3CC3)cc(C(F)(F)F)c2n1` [Compound 211] is 94.8%.
On the same count and under the same terms, the figure for `CCc1cc(C(F)(F)F)c2nc(C(=O)NCc3ccccn3)cc(C)c2c1` [Compound 158] is 98.9%; for `Cc1cc(C(=O)NC[C@H]2CC(F)(F)CN2)nc2c(C(F)(F)F)cc(C3CC3)cc12` [Compound 128] it is 99.4%; for `CC#Cc1cc(C(F)(F)F)c2nc(C(=O)NCc3ccccn3)cc(C)c2c1` [Compound 148] it is 99.5%.
The same measure, in the same setting: the value for `Cc1cc(-c2nnc(NCC3CCS(=O)(=O)C3)o2)nc2c(C(F)(F)F)cc(C3CC3)cc12` (stereo not drawn) [Compound 266] was 90.6%; that for `Cc1cc(C(=O)NCC2(C)COC2)nc2c(C(F)(F)F)cc(C3CC3)cc12` [Compound 103] was 96.1%; that for `Cc1cc(C(=O)NC[C@@H]2CC(F)(F)CCN2)nc2c(C(F)(F)F)cc(C3CC3)cc12` [Compound 132] was 100%.
On to `Cc1cc(C(=O)NCc2cccc(F)n2)nc2c(C(F)(F)F)cc(C3CC3)cc12` [Compound 80], for which the inhibition at 10 µM is 99.8%.
Consider `Cc1cc(C(=O)NCCNc2ccccn2)nc2c(C(F)(F)F)cc(C3CC3)cc12` [Compound 129], for which the inhibition at 10 µM is 94.9%.
With `Cc1cc(C(=O)NCCC#N)nc2c(C(F)(F)F)cc(-c3ccccc3)cc12` [Compound 104], the inhibition at 10 µM was 70.3%.
For the compound `Cc1cccnc1CNC(=O)c1cc(C)c2cc(C3CC3)cc(C(F)(F)F)c2n1` [Compound 84], the inhibition at 10 µM is 99%.
The same measure, in the same setting: the value for `Cc1cc(C(=O)N/C=C/Cc2ccccc2)nc2c(C(F)(F)F)cc(-c3ccccc3)cc12` [Compound 171] was 92.5%; that for `COCCNc1nnc(-c2cc(C)c3cc(OC)cc(C(F)(F)F)c3n2)o1` [Compound 275] was 99.7%.
On the same count and under the same terms, the value for `Cc1cc(C(=O)NCc2ccccn2)nc2c(C(F)(F)F)cc(C3CC3(F)F)cc12` (stereo not drawn) [Compound 154] was 100%; that for `Cc1cc(C(=O)NCc2ccccn2)nc2c(C(F)(F)F)cc(OCC(F)(F)F)cc12` [Compound 189] was 99.8%; that for `Cc1cc(-c2nnc(NCC(C)(C)CO)o2)nc2c(C(F)(F)F)cc(C3CC3)cc12` [Compound 260] was 96.7%.
In the case of `O=C(NC[C@@H]1C[C@@H](F)CN1)c1cc(Cl)c2cc(OC(F)F)cc(C(F)(F)F)c2n1` (single isomer, unassigned) [Compound 199], the inhibition at 10 µM was determined as 98.1%.
The same measure, in the same setting: the value for `Cc1cc(C(=O)NCC(O)c2ccccc2)nc2c(C(F)(F)F)cc(-c3ccccc3)cc12` (stereo not drawn) [Compound 168] was 86.4%; that for `Cc1cc(C(=O)NCc2ccccn2)nc2c(C(F)(F)F)cc(C(C)(C)O)cc12` [Compound 161] was 76.7%; that for `Cc1cc(C(=O)NC[C@H]2CCCN2)nc2c(C(F)(F)F)cc(C3CC3)cc12` (single isomer, unassigned) [Compound 113] was 96.2%.
With `Cc1cc(C(=O)NCC2CCCCC2)nc2c(C(F)(F)F)cc(-c3ccccc3)cc12` [Compound 172], the inhibition at 10 µM turned out to be 95.2%.
Same read-out and setting: the value for `Cc1cc(C(=O)NC2CNC(C)(C)COC2)nc2c(C(F)(F)F)cc(C3CC3)cc12` (stereo not drawn) [Compound 134] was 93.1%.

Staying with this experiment, now noted: Hepatitis C virus, Huh-7, 72 h, HCV1B replicon, Huh-7 cells, 3 days; read-out: EC50_HCV1B_.
On to `Cc1cc(-c2nnc(N[C@H]3CC[C@H](O)C3)o2)nc2c(C(C)(C)C)cc(OCC(F)(F)F)cc12` (racemic) [Compound 477], for which the EC50 was 2.22 nM.
Same read-out and setting: the figure for `Cc1cc(-c2nnc(NCC[C@@H](C)O)s2)nc2c(C(C)(C)C)cc(C3CC3)cc12` [Compound 386] is 1.14 nM.
For `Cc1cc(-c2nnc(NC3CCC(O)(CF)C3)o2)nc2c(C(C)(C)C)cc(OCC(F)(F)F)cc12` (stereo not drawn) [Compound 489], the EC50 is 26.7 nM.
Same read-out and setting: the figure for `Cc1cc(-c2nnc(N[C@H]3C[C@](O)(CF)C3)o2)nc2c(C(C)(C)C)cc(OC(F)F)cc12` [Compound 527] is 0.81 nM.
The same measure, in the same setting: the figure for `CC(C)(C)c1cc(C2CC2)cc2c(N)cc(C(=O)NCC3COC3)nc12` [Compound 337] is 69.6 nM.
With `Cc1cc(-c2nnc(N[C@H]3CC[C@@](O)(CF)C3)o2)nc2c(C(C)(C)C)cc(OCC(F)(F)F)cc12` [Compound 492], the EC50 stood at 19.3 nM.
Still for that read-out and setting: the figure for `CC(C)(C)c1cc(C2CC2)cc2c(N)cc(-c3nnc(NCc4ccccn4)o3)nc12` [Compound 347] is 7.54 nM; for `CC(C)(C)c1cc(C2CC2)cc2c(N)cc(-c3nnc(NCCCC(F)(F)F)o3)nc12` [Compound 356] it is 10.6 nM; for `Nc1cc(C(=O)NC[C@H]2CC(F)(F)CCN2)nc2c(C(F)(F)F)cc(OC(F)F)cc12` [Compound 315] it is 83.9 nM.
Same read-out and setting: the value for `Cc1cc(-c2nnc(Nc3cccnc3)s2)nc2c(C(C)(C)C)cc(OCC(F)(F)F)cc12` [Compound 519] was 21.1 nM.
Same read-out and setting: the figure for `Cc1cc(C(=O)NCc2ncccn2)nc2c(OC(F)(F)F)cc(C3CC3)cc12` [Compound 440] is 10.2 nM; for `Cc1cc(-c2nnc(NC3CS(=O)(=O)C3)o2)nc2c(C(C)(C)C)cc(OCC(F)(F)F)cc12` [Compound 506] it is 62.5 nM.
Consider `Cc1cc(-c2nnc(NCC3CSCCN3)s2)nc2c(C(F)(F)F)cc(C3CC3)cc12` (stereo not drawn) [Compound 312], for which the EC50 came out at 2120 nM.
As to `Cc1cc(-c2nnc(NC[C@H]3CCCO3)o2)nc2c(C(C)(C)C)cc(C3CC3)cc12` [Compound 397], the EC50 came to 3.17 nM.
Consider `Cc1cc(-c2nnc(N[C@H]3C[S@@+]([O-])C3)o2)nc2c(C(C)(C)C)cc(OCC(F)(F)F)cc12` [Compound 507], for which the EC50 came out at 19.1 nM.
Same read-out and setting: the value for `CCCCNc1nnc(-c2cc(N)c3cc(C4CC4)cc(C(C)(C)C)c3n2)s1` [Compound 376] was 0.86 nM; that for `CCCCNc1nnc(-c2cc(C)c3cc(C4CC4)cc(C(C)(C)C)c3n2)s1` [Compound 377] was 6.23 nM.
On the same count and under the same terms, the value for `Cc1cc(-c2nnc(NCCS(N)(=O)=O)o2)nc2c(C(C)(C)C)cc(C3CC3)cc12` [Compound 395] was 34.4 nM; that for `CC(C)(C)c1cc(C2CC2)cc2c(N)cc(C(=O)NCc3cnccn3)nc12` [Compound 320] was 1.7 nM.
Still for that read-out and setting: the value for `CC(C)(C)c1cc(C2CC2)cc2c(N)cc(-c3nnc(NCC(F)(F)CO)o3)nc12` [Compound 372] was 1.95 nM; that for `CC[C@]1(O)C[C@@H](Nc2nnc(-c3cc(C)c4cc(OCC(F)(F)F)cc(C(C)(C)C)c4n3)o2)C1` [Compound 478] was 1.48 nM.
Consider `Cc1cc(-c2nnc(NCC(F)(F)CO)o2)nc2c(C(C)(C)C)cc(OCC(F)(F)F)cc12` [Compound 459], for which the EC50 was 4.32 nM.
With `Cc1cc(-c2nnc(NC3CC4(COCO4)C3)o2)nc2c(C(C)(C)C)cc(C3CC3)cc12` (stereo not drawn) [Compound 515], the EC50 is 15.9 nM.
On the same count and under the same terms, the value for `Cc1cc(-c2nnc(NCC3(C)COC3)o2)nc2c(C(C)(C)C)cc(OCC(F)(F)F)cc12` [Compound 486] was 1850 nM; that for `Cc1cc(-c2nnc(N[C@@H]3CCOC3)o2)nc2c(C(C)(C)C)cc(C3CC3)cc12` [Compound 405] was 5.25 nM.

Staying with this experiment, now noted: Hepatitis C virus, Huh-7, 72 h; read-out: EC50_HCV1B_.
Turning to `Cc1cc(-c2nnc(NCC3OCCO3)o2)nc2c(C(C)(C)C)cc(OCC3CC3)cc12` [Compound 532], the EC50 was 41.2 nM.
Same read-out and setting: the value for `Cc1cc(-c2nnc(N[C@H]3C[C@@H](O)C3)o2)nc2c(C(C)(C)C)cc(OCC(C)C)cc12` [Compound 534] was 154 nM.
